# In patent US20260014232A1, “Pharmaceutical Composition of GLP-1 and GIP Receptor Dual Agonist and Use Thereof” (Jiangsu Hengrui Pharmaceuticals Co., Ltd., priority 2021, published 2026):
# Starred links: 1 amine or outer side, 2 acyl side, 3 side chain; linkers in the order of their positions; H or OH if unused. Non-standard residues stand in square brackets, D forms with d. Residues, ends and D or L forms follow the SMILES beside them. Groups on a side chain read outwards from the residue. *: point of attachment. C20 diacid = O=C(O)CCCCCCCCCCCCCCCCCCC(=O)*; γGlu = O=C(O)[C@H](CCC(=O)[*:2])N[*:1]; AEEA = NCCOCCOCC(=O)O; Aib = CC(C)(N)C(=O)O
# Experiment: Body weight of diet-induced-obesity mice after subcutaneous administration
# Format: in vivo, C57BL/6 mice
# Conditions: DIO mice
# Procedure: High-fat food-induced-obesity male C57BL/6 mice (weighing 35-55 g, aged 10-12 weeks, purchased from Shanghai Jiesijie Laboratory Animal Co., Ltd.) were tested. […] According to the experimental design, the body weight of each mouse was measured and recorded on day 0, day 3, day 6, and so on to day 27, the average body weight of each group of mice was calculated, and body weight change curves were plotted by taking the body weight on the first day as the standard. At the end, the fat and other visceral organs of each part of the mice were taken out and weighed, and the viscera/brain ratio for fat in each part of each mouse was calculated. The effect of the drug on the fat was determined by comparing the change in the viscera/brain ratio for fat of different parts of each group of mice.
smiles,measurement,setting,value
CC[C@H](C)[C@H](NC(=O)[C@H](CCCCN)NC(=O)[C@H](CCC(=O)O)NC(=O)[C@H](CCCCNC(=O)COCCOCCNC(=O)COCCOCCNC(=O)CC[C@H](NC(=O)CCCCCCCCCCCCCCCCCCC(=O)O)C(=O)O)NC(=O)[C@H](Cc1ccc(O)cc1)NC(=O)[C@@H](NC(=O)[C@H](CO)NC(=O)[C@H](Cc1ccc(O)cc1)NC(=O)[C@H](CC(=O)O)NC(=O)[C@H](CO)NC(=O)[C@@H](NC(=O)[C@H](Cc1ccccc1)NC(=O)[C@@H](NC(=O)CNC(=O)[C@H](CCC(=O)O)NC(=O)C(C)(C)NC(=O)[C@@H](N)Cc1ccc(O)cc1)[C@@H](C)O)[C@@H](C)O)[C@@H](C)CC)C(=O)N[C@@H](C)C(=O)N[C@@H](C)C(=O)N[C@@H](CCC(N)=O)C(=O)N[C@@H](CCC(=O)O)C(=O)N[C@@H](Cc1ccccc1)C(=O)N[C@H](C(=O)N[C@@H](CC(N)=O)C(=O)N[C@@H](Cc1c[nH]c2ccccc12)C(=O)N[C@@H](CC(C)C)C(=O)N[C@@H](CC(C)C)C(=O)N[C@@H](C)C(=O)NCC(=O)NCC(=O)N1CCC[C@H]1C(=O)N[C@@H](CO)C(=O)N[C@@H](CO)C(=O)NCC(=O)N[C@@H](C)C(=O)N1CCC[C@H]1C(=O)N1CCC[C@H]1C(=O)N1CCC[C@H]1C(=O)N[C@@H](CO)C(N)=O)C(C)C [Compound 18#] (H-Y[Aib]EGTFTSDYSIYK([AEEA-AEEA-γGlu-C20 diacid])EKIAAQEFVNWLLAGGPSSGAPPPS-NH2),rate of body weight change,"3 nmol/kg s.c. every 3 days, day 0 (before administration)",0%
same,rate of body weight change,"3 nmol/kg s.c. every 3 days, day 1",−5%
same,rate of body weight change,"3 nmol/kg s.c. every 3 days, day 2",−6.3%
same,rate of body weight change,"3 nmol/kg s.c. every 3 days, day 3",−5.8%
same,rate of body weight change,"3 nmol/kg s.c. every 3 days, day 4",−9.1%
same,rate of body weight change,"3 nmol/kg s.c. every 3 days, day 5",−10.3%
same,rate of body weight change,"3 nmol/kg s.c. every 3 days, day 6",−10%
same,rate of body weight change,"3 nmol/kg s.c. every 3 days, day 7",−13%
same,rate of body weight change,"3 nmol/kg s.c. every 3 days, day 8",−13.9%
same,rate of body weight change,"3 nmol/kg s.c. every 3 days, day 9",−13.9%
same,rate of body weight change,"3 nmol/kg s.c. every 3 days, day 10",−16.6%
same,rate of body weight change,"3 nmol/kg s.c. every 3 days, day 11",−16.4%
same,rate of body weight change,"3 nmol/kg s.c. every 3 days, day 12",−15.7%
same,rate of body weight change,"3 nmol/kg s.c. every 3 days, day 13",−18.2%
same,rate of body weight change,"3 nmol/kg s.c. every 3 days, day 14",−17.1%
same,rate of body weight change,"3 nmol/kg s.c. every 3 days, day 15",−15.7%
same,rate of body weight change,"3 nmol/kg s.c. every 3 days, day 16",−18.6%
same,rate of body weight change,"3 nmol/kg s.c. every 3 days, day 17",−18.3%
same,rate of body weight change,"3 nmol/kg s.c. every 3 days, day 18",−17.9%
same,rate of body weight change,"3 nmol/kg s.c. every 3 days, day 19",−20.5%
same,rate of body weight change,"3 nmol/kg s.c. every 3 days, day 20",−19.8%
same,rate of body weight change,"3 nmol/kg s.c. every 3 days, day 21",−17.8%
same,rate of body weight change,"3 nmol/kg s.c. every 3 days, day 22",−19.3%
same,rate of body weight change,"3 nmol/kg s.c. every 3 days, day 23",−19.1%
same,rate of body weight change,"3 nmol/kg s.c. every 3 days, day 24",−17.3%
same,rate of body weight change,"3 nmol/kg s.c. every 3 days, day 25",−19.9%
same,rate of body weight change,"3 nmol/kg s.c. every 3 days, day 26",−18.8%
same,rate of body weight change,"3 nmol/kg s.c. every 3 days, day 27",−16.1%
same,rate of body weight change,"3 nmol/kg s.c. every 3 days, day 28",−19.2%
same,rate of body weight change,"10 nmol/kg s.c. every 3 days, day 0 (before administration)",0%
same,rate of body weight change,"10 nmol/kg s.c. every 3 days, day 1",−6.2%
same,rate of body weight change,"10 nmol/kg s.c. every 3 days, day 2",−8.6%
same,rate of body weight change,"10 nmol/kg s.c. every 3 days, day 3",−9.4%
same,rate of body weight change,"10 nmol/kg s.c. every 3 days, day 4",−12.7%
same,rate of body weight change,"10 nmol/kg s.c. every 3 days, day 5",−14.5%
same,rate of body weight change,"10 nmol/kg s.c. every 3 days, day 6",−15%
same,rate of body weight change,"10 nmol/kg s.c. every 3 days, day 7",−18.3%
same,rate of body weight change,"10 nmol/kg s.c. every 3 days, day 8",−20.1%
same,rate of body weight change,"10 nmol/kg s.c. every 3 days, day 9",−20.3%
same,rate of body weight change,"10 nmol/kg s.c. every 3 days, day 10",−23.4%
same,rate of body weight change,"10 nmol/kg s.c. every 3 days, day 11",−23.9%
same,rate of body weight change,"10 nmol/kg s.c. every 3 days, day 12",−23.5%
same,rate of body weight change,"10 nmol/kg s.c. every 3 days, day 13",−26.4%
same,rate of body weight change,"10 nmol/kg s.c. every 3 days, day 14",−25.1%
same,rate of body weight change,"10 nmol/kg s.c. every 3 days, day 15",−23.4%
same,rate of body weight change,"10 nmol/kg s.c. every 3 days, day 16",−26.6%
same,rate of body weight change,"10 nmol/kg s.c. every 3 days, day 17",−25.7%
same,rate of body weight change,"10 nmol/kg s.c. every 3 days, day 18",−24.6%
same,rate of body weight change,"10 nmol/kg s.c. every 3 days, day 19",−27.5%
same,rate of body weight change,"10 nmol/kg s.c. every 3 days, day 20",−27.3%
same,rate of body weight change,"10 nmol/kg s.c. every 3 days, day 21",−24.8%
same,rate of body weight change,"10 nmol/kg s.c. every 3 days, day 22",−28.1%
same,rate of body weight change,"10 nmol/kg s.c. every 3 days, day 23",−27.1%
same,rate of body weight change,"10 nmol/kg s.c. every 3 days, day 24",−26%
same,rate of body weight change,"10 nmol/kg s.c. every 3 days, day 25",−28.5%
same,rate of body weight change,"10 nmol/kg s.c. every 3 days, day 26",−27.8%
same,rate of body weight change,"10 nmol/kg s.c. every 3 days, day 27",−24.8%
same,rate of body weight change,"10 nmol/kg s.c. every 3 days, day 28",−28.2%
same,rate of body weight change,"100 nmol/kg s.c. every 3 days, day 0 (before administration)",0%
same,rate of body weight change,"100 nmol/kg s.c. every 3 days, day 1",−6.3%
same,rate of body weight change,"100 nmol/kg s.c. every 3 days, day 2",−10.9%
same,rate of body weight change,"100 nmol/kg s.c. every 3 days, day 3",−13.2%
same,rate of body weight change,"100 nmol/kg s.c. every 3 days, day 4",−15.7%
same,rate of body weight change,"100 nmol/kg s.c. every 3 days, day 5",−19.2%
same,rate of body weight change,"100 nmol/kg s.c. every 3 days, day 6",−21.8%
same,rate of body weight change,"100 nmol/kg s.c. every 3 days, day 7",−24.7%
same,rate of body weight change,"100 nmol/kg s.c. every 3 days, day 8",−27.6%
same,rate of body weight change,"100 nmol/kg s.c. every 3 days, day 9",−29.6%
